One data set deals with nicotinic receptors Rα7 (Rattus norvegicus, UniProt Q05941). Nature of the data set: biochemical. It is filed as binding.
The nature of data set [1]: Solubility (solvents listed in table). To be noted: solvents in which the compound is soluble, in words.
The mark [2] stands for this setting: rat frontal cortex membranes, [125I]α-bungarotoxin 2 nM, 22° C., 3 hours, Ki calculated from IC50 (Cheng and Prussof), read-out: Activity on Rα7.

Read-outs that look alike come from different tables or passages of the source.

Chain of nicotinic receptors Rα7 (Q05941 23-502): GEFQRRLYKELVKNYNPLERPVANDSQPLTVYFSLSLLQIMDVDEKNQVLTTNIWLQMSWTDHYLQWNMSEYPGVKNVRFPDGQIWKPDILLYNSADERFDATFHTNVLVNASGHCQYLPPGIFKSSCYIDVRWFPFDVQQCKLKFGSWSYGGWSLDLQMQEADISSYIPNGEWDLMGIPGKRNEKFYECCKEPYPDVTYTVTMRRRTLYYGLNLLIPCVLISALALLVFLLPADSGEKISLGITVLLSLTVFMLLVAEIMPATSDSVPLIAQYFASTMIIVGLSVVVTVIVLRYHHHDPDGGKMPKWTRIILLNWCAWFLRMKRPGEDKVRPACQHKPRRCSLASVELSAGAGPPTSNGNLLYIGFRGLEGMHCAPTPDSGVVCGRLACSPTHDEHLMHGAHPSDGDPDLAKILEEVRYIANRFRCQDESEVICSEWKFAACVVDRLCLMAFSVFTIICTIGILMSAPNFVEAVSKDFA

What is called melting point is the temperature of the solid-liquid transition. In turn, `CN1[C@@H]2CC[C@H]1C[C@@H](n1cc(-c3ccc(F)cc3)nn1)C2` [Compound 17, Endo-3(4-(4-fluorophenyl)-1H-1,2,3-triazol-1-yl)tropane] yielded a melting point of 254 °C. The molecule also gave a Ki at nicotinic receptors Rα7 of 210 ± 31 nM. Further, in data set [1], the Solubility result is on record as “M = 286.35 g/mol C16H19FN4 CHCl3 − DMSO”.

Turning to `CN1[C@@H]2CC[C@H]1C[C@@H](n1cc(-c3ccc4occc4c3)nn1)C2` [Compound 26, Endo-3-(4-(1-benzofuran-5-yl)-1H-1,2,3-triazol-1-yl)topane], the melting point worked out at 104 °C. Further, at nicotinic receptors Rα7, the Ki is 13 ± 5 nM. The Solubility entry in data set [1] was “M = 308.38 g/mol C18H20N4O CHCl3 − DMSO”.

For the molecule `CN1[C@@H]2CC[C@H]1C[C@@H](n1cc(-c3ccc(Br)s3)nn1)C2` [Compound 27, Endo-3-(4-(5-bromothiophen-2-yl)-1H-1,2,3-triazol-1-yl)tropane], the melting point was determined as 138 °C. On nicotinic receptors Rα7, this molecule gave a Ki of 275 ± 43 nM. The Solubility entry in data set [1] was “M = 353.28 g/mol C14H17BrN4S CHCl3 − DMSO”.

Take `COc1ccc(-c2cn([C@H]3C[C@H]4CC[C@@H](C3)N4C)nn2)cc1` [Compound 19, Endo-3-(4-(4-methoxyphenyl)-1H-1,2,3-triazol-1-yl)tropane]: the melting point was found to be 118 °C. On nicotinic receptors Rα7, this molecule came in with a Ki of 283 ± 76 nM. Besides, the Solubility result in data set [1] was “M = 298.38 g/mol C17H22N4O CHCl3 − DMSO”.

`CN1[C@@H]2CC[C@H]1C[C@@H](n1cc(-c3ccccc3)nn1)C2` [Compound 16, Endo-3-(4-phenyl-1H-1,2,3-triazol-1-yl)tropane] registered a melting point of 135 °C. The Ki at nicotinic receptors Rα7 came out at 168 ± 68 nM. Also, the Solubility result in data set [1] is reported as “M = 268.36 g/mol C16H20N4 CHCl3 − DMSO”.

Turning to `COc1ccc(-c2cn([C@H]3CN4CCC3CC4)nn2)cc1` [Compound 46, (R)-3-(4-(4-Methoxyphenyl)-1H-1,2,3-triazol-1-yl)quinuclidine], the melting point worked out at 122 °C. Also, the Solubility result in data set [1] is given as “M = 284.36 g/mol C16H20N4O DMSO”.

Take `OCc1ccc(-c2ccc(-c3cn([C@H]4CN5CCC4CC5)nn3)cc2)s1` [Compound 114, (R)-[5-[4-[1-[quinuclidin-3-yl]-1H-1,2,3-triazol-4-yl]phenyl]-2-thienyl]methanol]: the melting point worked out at 234 °C. The Ki at nicotinic receptors Rα7 came to 160 nM.

In the case of `O=Cc1ccc(-c2ccc(-c3cn([C@H]4CN5CCC4CC5)nn3)cc2)s1` [Compound 97, (R)-5-[4-[1-[quinuclidin-3-yl]-1H-1,2,3-triazol-4-yl]phenyl]thiophene-2-carbaldehyde], the melting point was determined as 228 °C. The Ki on nicotinic receptors Rα7 was in the range of 90 to 120 nM.

`Fc1ccc(-c2cn([C@H]3CN4CCC3CC4)nn2)cc1F` [Compound 45, (R)-3-(4-(3,4-difluorophenyl)-1H-1,2,3-triazol-1-yl) quinuclidine] returned a melting point of 122 °C. Besides, the Ki on nicotinic receptors Rα7 (setting [2]) was 10 ± 4 nM.

With `CN1[C@@H]2CC[C@H]1C[C@@H](n1cc(-c3ccc4sccc4c3)nn1)C2` [Compound 25, Endo-3-(4-(1-Benzothiophen-5-yl)-1H-1,2,3-triazol-1-yl)tropane], the melting point was 163 °C. At nicotinic receptors Rα7, the Ki was found to be 14 ± 4 nM. In addition, the Solubility result in data set [1] is recorded as “M = 324.44 g/mol C18H20N4S CHCl3 − DMSO”.

With `Fc1ccc(-c2cn([C@@H]3CN4CCC3CC4)nn2)cc1` [Compound 57, (S)-3-(4-(4-Fluorophenyl)-1H-1,2,3-triazol-1-yl)quinuclidine], the melting point worked out at 139 °C. Also, the Ki at nicotinic receptors Rα7 (setting [2]) was 114 ± 38 nM.

Molecule `CN1[C@@H]2CC[C@H]1C[C@@H](n1cc(-c3cccc(F)c3)nn1)C2` [Compound 22, Endo-3-(4-(3-fluorophenyl)-1H-1,2,3-triazol-1-yl)tropane] yielded a melting point of 124 °C. This molecule came in with a Ki at nicotinic receptors Rα7 of 16 ± 9 nM. For the same molecule, the Solubility result in data set [1] was “M = 286.35 g/mol C16H19FN4 CHCl3 − DMSO”.

In turn, `CN1[C@@H]2CC[C@H]1C[C@@H](n1cc(-c3ccc(Cl)c(Cl)c3)nn1)C2` [Compound 24, Endo-3-(4-(3,4-dichlorophenyl)-1H-1,2,3-triazol-1-yl)tropane] came in with a melting point of 136 °C. In addition, the Ki on nicotinic receptors Rα7 came to 110 ± 36 nM. Besides, in data set [1], the Solubility entry was “M = 337.25 g/mol C16H18Cl2N4 CHCl3 − DMSO”.

Source of the values: patent US10059704B2, “1,4-disubstituted 1,2,3-triazoles, methods for preparing same, and diagnostic and therapeutic uses thereof” (CENTRE NATIONAL DE LA RECHERCHE SCIENTIFIQUE (C.N.R.S.), priority 2011, dated 2018).
